In series [1] the test system is KB 8-5-11 cells. Put plainly: cells. Conditions: Homo sapiens, 1 h, Table V, read-out: MFI (T/U), treated cells/untreated cells; for fold induction at 100 µg/mL: KB8-5-11, 100 μg/ml. Type of series: cell-based. From the text:
A series of PEG domains of average MW 600, 900 or 1500 was synthesized.

The subject of series [2] is KB 8-5-11 cells. Kind of series: Relative RMA activity: percent KB 8-5-11 (MDR) cells showing rhodamine 123 fluorescence in the range of sensitive KB 3-1 cells. The format is cell-based, human. Conditions: Table V, none = 0.6. The protocol: Efflux of rhodamine 123 from MDR cells was also examined to provide direct information about the action of the transport protein Mdr 1. Enhanced accumulation of the P-gp substrate, rhodamine 123, in multidrug resistant KB 8-5-11 cells was used to measure RMA activity. Flow cytometric analysis was performed as described (Coon et al., 1991; Buckingham et al. 1995). Briefly, multidrug resistant KB 8-5-11 cells (0.5×10^6 cells/ml) were incubated with […] rhodamine 123 at 37° C. in the presence or absence of the putative RMA. After 60 min., mean intracellular steady state rhodamine 123 fluorescence was measured on an Epics Profile How Cytometer (Coulter, Hialeah, Fla.).
SOLUTOL® HS 15 was fractionated using reverse phase liquid chromatography to determine where the activity resides in the preparation. An approximately 50% solution of SOLUTOL® HS 15 was prepared in 100% acetonitrile (ACN) and water. One ml of the SOLUTOL® HS 15 solution was injected onto a Phenomenex IB-Sil reversed phase column. The column has 5 μm particles, and is 4.6 mm internal diameter by 150 mm. The flow rate was 2.0 ml/min. The mobile phase was as follows: A=5% ACN and B=100% ACN. The gradient was linear with 100% A to 100% B in 15 minutes, then was maintained at 100% B. Fractions were collected at 30 second intervals. The various fractions were assayed for RMA activity as described in Example III. […] 145-149, 1989.
The various fractions obtained from the reverse phase liquid chromatography were analyzed to determine the RMA activity in each fraction. The fractions were then analyzed by infrared spectrophotometry.
^a Percent cells KB85-11 (MDR) showing rhodamine 123 fluorescence in
the range of sensitive cell (KB31) in the same experiment.
CREMOPHOR® EL was fractionated by super critical extraction. Approximately 25 grams of CREMOPHOR® EL was thoroughly mixed with 20 grams of hydromatrix (silicon dioxide) manufactured by Varian--Harbor City, Calif. 40710 and loaded into a stainless steel high pressure extraction cell. The extraction cell was maintained at 40° C. Supercritical carbon dioxide was pumped into the extraction cell at a rate of approximately 3 liters of gaseous carbon dioxide per minute (4 ml of supercritical carbon dioxide per minute). The extractable material was dissolved under the extraction conditions, and separated from the matrix. The supercritical carbon dioxide solution with dissolved component was then depressurized to evaporate the carbon dioxide gas, and to precipitate the solute. […]
^a Percent KB 85-11 (MDR) cells showing rhodamine 123 fluorescence in
The RMA activity of various fatty acids, PEG monoesters and PEG diesters was determined by the method described in Example III. […]

In series [3] the test system is KB 3-1 cells. Put plainly: cells. Conditions: Homo sapiens, KB 3-1, 1 h, Table V, read-out: MFI (T/U), treated cells/untreated cells; for fold induction at 100 µg/mL: KB3-1, 100 μg/ml. The format is cell-based.
Excerpt: ^b Mean Fluorescence Intensity resulting from intracellular rhodamine
The nature of series [4]: in vitro. Conditions: human, k562/iii cells. The protocol:
The chromogenic substrate, MTT (Sigma), was used to enumerate viable cells. […] For the Resistance Modification Index (RMI, Eliason et al., 1990), cells were prepared in microtiter plates and incubated with the indicated drugs and RMA. RMI was calculated as the IC50 of drug alone/IC50 of drug+RMA. The average RMI was calculated from at least three independent assays.
Growth is related as % relative to untreated cells.

Series [5] can be described thus: In vivo tolerability of RMA. Conditions: dosages achieving equivalent or superior reversal of MDR vs verapamil.
The test system of series [6] is multidrug resistant cells. To be noted: cited from earlier work.
A short description of series [7]: in vitro. To be noted: human, kb 3-1 cells.
Series [8] is described as follows: in vitro. Conditions: human, kb 8-5 cells.
Series [9] in a line: in vitro. To be noted: human, kb 8-5-11 cells.
Series [10] has as its system Mdr1 protein. To be noted: cited from earlier work.

Converted amounts (≈) assume the structure as drawn.

Turning to `CCCCCCCCCCCCCCCCCC(=O)O` [Stearic Acid], the fold induction at 100 µg/mL in [1] was 1.4; in series [3], 1.9. For the same molecule, the “Relative RMA Activity” value in series [2] (100 μg/ml) is listed as 2.1%.
`CC/C=C\C/C=C\C/C=C\CCCCCCCC(=O)O` [Linolenic Acid]: the fold induction at 10 µg/mL was 0.9 in [1] (KB8-5-11, 10 μg/ml) and 1.2 in series [3] (KB3-1, 10 μg/ml). The fold induction at 100 µg/mL in series [1] and in series [3] was 1.7 each time. The “Relative RMA Activity” value was 1.3% in series [2] (10 μg/ml) and 9.2% in series [2] (100 μg/ml).
On to `COc1ccc(CCN(C)CCCC(C#N)(c2ccc(OC)c(OC)c2)C(C)C)cc1OC` (stereo not shown) [Verapamil], for which the CC50 at 72 h in [4] came to 38 µg/mL (≈ 83.6 µM); in series [7], 40 µg/mL (≈ 88 µM); in series [8], 10 µg/mL (≈ 22 µM); in [9], 27 µg/mL (≈ 59.4 µM). The in vivo tolerability result in series [5] is reported as “marked toxicity”. The “effect against VP-16 multidrug resistance (literature)” value in [6] is recorded as “not effective against VP-16 multidrug resistance”. Also, the “intracellular localization of doxorubicin with added agent (literature)” value in [6] (drug resistant cells) is reported as “doxorubicin is localized mainly in the nucleus in drug resistant cells”.
Regarding `CCCCCCCC/C=C\CCCCCCCC(=O)O` [Oleic Acid], the fold induction at 100 µg/mL is 1.7 in series [1] and 2.1 in series [3]. For the same molecule, in series [2] (100 μg/ml), the “Relative RMA Activity” value turned out to be 2.7%.
Consider `COc1cc2c(c(OC)c1OC)-c1ccc(OC)c(=O)cc1[C@@H](NC(C)=O)CC2` [Colchicine, colchicine], for which, in series [10], the “competition for vinblastine binding” value is “does not compete for vinblastine binding” and the “interaction with identified drug-binding site on Mdr1 protein” value is given as “interact weakly with the identified drug-binding site on the Mdr1 protein”.
Take `[N-]=[N+]=[N-]` [azide]: the “RMA activity / reversal of multidrug resistance (literature)” value in series [6] (in vitro) is on record as “reverse multidrug resistance in vitro”.

As usually defined, the CC50 is the concentration at which the toxic effect on the cells reaches its halfway point.

The values above are taken from patent US5591715A, “Methods and compositions for reducing multidrug resistance” (priority 1995, dated 1997).
